{
  "source": "patent US20010044382A1",
  "about": "“Herbicide” (priority 1998, published 2001)",
  "type_in_all_cases": "in vivo",
  "key": {"Xanthium": {"test_system": "Xanthium", "assay": "Pre-emergence test (greenhouse), herbicidal action", "protocol": "(§1) Experiment Description—Pre-emergence Test:\n(§2) The test plants are sown in standard soil in plastics pots under greenhouse conditions. Directly after sowing, the test compounds are applied in aqueous suspension (500 liters of water/ha). The test plants are then grown on in the greenhouse under optimum conditions. The rates of application depend on the optimum doses ascertained under field conditions and greenhouse conditions. The tests are evaluated after 26 days (% action, 100%=plants have died, 0%=no phytotoxic action)."}, "Ipomoea": {"test_system": "Ipomoea", "assay": "Pre-emergence test (greenhouse), herbicidal action", "protocol": "as §1, §2"}, "Polygonum": {"test_system": "Polygonum", "assay": "Pre-emergence test (greenhouse), herbicidal action", "protocol": "as §1, §2"}, "Cyperus": {"test_system": "Cyperus", "assay": "Post-emergence test (greenhouse), herbicidal action", "conditions": "primisulfuron 20 g/ha, after 20 days", "protocol": "(§3) Experiment Description—Post-emergence Test:\n(§4) The test plants are grown to the 2- to 3-leaf stage in plastics pots under greenhouse conditions. A standard soil is used as cultivation substrate. At the 2- to 3-leaf stage, the herbicide is applied to the test plants on its own and as a mixture. The application is carried out using an aqueous suspension of the test compounds in 500 liters of water/ha. The rates of application depend on the optimum doses ascertained under field conditions and greenhouse conditions. The tests are evaluated after 20 days (% action, 100%=plant has died, 0%=no phytotoxic action)."}, "Digitaria": {"test_system": "Digitaria", "assay": "Post-emergence test (greenhouse), herbicidal action", "conditions": "halosulfuron 100 g/ha, after 20 days", "protocol": "as §3, §4"}, "[1]": {"conditions": "terbuthylazine 200 g/ha, after 26 days (Table 4)"}, "[2]": {"conditions": "terbuthylazine 200 g/ha, after 26 days (Table 6)"}, "[3]": {"conditions": "atrazine 200 g/ha, after 26 days (Table 5)"}, "[4]": {"conditions": "atrazine 200 g/ha, after 26 days (Table 7)"}},
  "data": [
    {"compound": "CCNc1nc(Cl)nc(NC(C)(C)C)n1", "note": "[Terbuthylazine, terbuthylazine]", "values": [
      {"measurement": "% action", "setting": "Xanthium; [1]", "value": 0, "unit": "%"},
      {"measurement": "% action", "setting": "Xanthium; [2]", "value": 0, "unit": "%"},
      {"measurement": "% action", "setting": "Ipomoea; [1]", "value": 30, "unit": "%"},
      {"measurement": "% action", "setting": "Ipomoea; [2]", "value": 30, "unit": "%"},
      {"measurement": "% action", "setting": "Polygonum; [1]", "value": 60, "unit": "%"},
      {"measurement": "% action", "setting": "Polygonum; [2]", "value": 60, "unit": "%"}
    ]},
    {"compound": "O=C(Nc1nc(OC(F)F)cc(OC(F)F)n1)NS(=O)(=O)c1ccccc1C(=O)O", "note": "[Primisulfuron, primisulfuron]", "values": [
      {"measurement": "% action", "setting": "Cyperus", "value": 90, "unit": "%"}
    ]},
    {"compound": "CCNc1nc(Cl)nc(NC(C)C)n1", "note": "[Atrazine, atrazine]", "values": [
      {"measurement": "% action", "setting": "Xanthium; [3]", "value": 0, "unit": "%"},
      {"measurement": "% action", "setting": "Xanthium; [4]", "value": 0, "unit": "%"},
      {"measurement": "% action", "setting": "Ipomoea; [4]", "value": 70, "unit": "%"},
      {"measurement": "% action", "setting": "Polygonum; [3]", "value": 90, "unit": "%"}
    ]},
    {"compound": "COc1cc(OC)nc(NC(=O)NS(=O)(=O)c2c(C(=O)O)c(Cl)nn2C)n1", "note": "[Halosulfuron, halosulfuron]", "values": [
      {"measurement": "% action", "setting": "Digitaria", "value": 25, "unit": "%"}
    ]}
  ]
}
